These are literature values, as cited in patent publication US12156855B2, “Infusion dosage form of norepinephrine” (Sun Pharmaceutical Industries Limited, priority 2019, dated 2024).

Regarding `O=Cc1ccc(O)c(O)c1` [3,4 dihydroxybenzaldehyde, 3,4-dihydroxybenzaldehyde], the reported toxicity result (heart, ZHANG Cui-ying et al) is “toxic to the heart”.

For the compound `Oc1cc2c(cc1O)C(O)CNC2` (centres unmarked) [impurity of Formula I, 1,2,3,4-tetrahydroisoquinoline-4,6,7-triol], the reported pharmacological action result (Hans Aaron Bates, J. Org. Chem. 1983) is “acts as false neurotransmitter”.
